Some results are limits rather than exact numbers.

A word on the MIC: it is the least concentration at which growth counts as inhibited. A high value points to a less susceptible organism.

This assay concerns Mycobacterium tuberculosis. Kind of assay: In vitro minimum inhibitory concentration measured against Mycobacterium tuberculosis H37Rv strain. The assay is classed as functional.
`c1ccc(CNCCNCc2ccccc2)cc1` gave a minimum inhibitory concentration (MIC) above 64 µg/mL.

In turn, “(1S)-2-({[4-({[(5R)-5-hydroxycyclopenta-1,3-dien-1-yl]methyl}amino)butyl]amino}methyl)cyclopenta-2,4-dien-1-ol bis(cyclopenta-1,3-diene) diiron” returned an MIC above 64 µg/mL.

Molecule “(1S)-2-({[6-({[(5R)-5-hydroxycyclopenta-1,3-dien-1-yl]methyl}amino)hexyl]amino}methyl)cyclopenta-2,4-dien-1-ol bis(cyclopenta-1,3-diene) diiron” displayed an MIC above 64 µg/mL.

Regarding “(cyclopenta-1,3-dien-1-ylmethyl)(hexyl)amine (cyclopenta-1,3-dien-1-ylmethyl)(methyl)amine bis(cyclopenta-1,3-diene) diiron”, inhibition of growth (MIC) required 32 µg/mL.

Turning to “(cyclopenta-1,3-dien-1-ylmethyl)({2-[(cyclopenta-1,3-dien-1-ylmethyl)amino]ethyl})amine bis(cyclopenta-1,3-diene) diiron”, the MIC was 8 µg/mL.

In turn, “(cyclopenta-1,3-dien-1-ylmethyl)({3-[(cyclopenta-1,3-dien-1-ylmethyl)amino]propyl})amine bis(cyclopenta-1,3-diene) diiron” yielded an MIC of 8 µg/mL.

The molecule “(cyclopenta-1,3-dien-1-ylmethyl)({4-[(cyclopenta-1,3-dien-1-ylmethyl)amino]butyl})amine bis(cyclopenta-1,3-diene) diiron” came in with an MIC of 32 µg/mL.

(Values after ChEMBL document CHEMBL1144381, “Synthesis and antimycobacterial activity of ferrocenyl ethambutol analogues and ferrocenyl diamines” (2005).)
